Patent publication US20180161291A1, “EXTENDED RELEASE UREA COMPOSITIONS” (Kato Pharmaceuticals, Inc., priority 2015, published 2018)

Tests used:
[1] = tested on: human patients with single or multiple retinal tears; experiment: Treatment of retinal tears: intravitreal urea 3 days before pneumatic Retinopexy; format: in vivo
Protocol: All patients received pneumatic Retinopexy treatment 3 days after intravitreal injection of 1.5 mg of urea in 50 μl of aqueous solution prepared according to the formulation set forth in Table II above. […] Within 3-7 days after urea injection, 11/12 patients had developed PVD, only 1/12 patients had not developed PVD. Within 90 days of the urea injection that one patient also developed PVD.
Within 3 days of treatment 9/12 patients had complete retinal reattachment and macular attachment, and within 7 days all 12 patients had complete retinal reattachment and macular attachment. […]
(Tornambe, P. E. et. al. Opthalmology, 1989; 96: 772-783).

[2] = tested on: patient with stage 3 idiopathic macular hole; experiment: Treatment of idiopathic macular hole: intravitreal urea followed by expandable gas; format: in vivo, human; settings: for visual acuity: baseline 20/400; for size of the macular hole: baseline 450 μm
Protocol: The macular defect was classified as a stage 3 macular hole, and the patient's visual acuity was recorded at 20/400 at a baseline time point prior to urea treatment. […] Seven days after the intravitreal urea injection the patient was administered an intravitreal injection of 0.3 ml of expandable gas (C3 F8).
One week after administration of the gas, the size of the macular hole had decreased from 450 μm to a smaller size of 200 μm and the patient's vision had improved from a baseline visual acuity of 20/400 to 20/80. Two weeks post treatment the size of the macular hole had decreased from 450 μm to a smaller size of 90 μm and the patient's vision had improved from a baseline visual Acuity of 20/400 to 20170. Four weeks post treatment the size of the macular hole had decreased from 450 μm to a smaller size of 60 μm and the patient's vision had improved from a baseline visual acuity of 20/400 to 20/60.

[3] = tested on: human patients with diabetes-related nonclearing vitreous hemorrhage; experiment: Treatment of vitreous hemorrhage; format: in vivo; settings: within 2 to 4 weeks after single intravitreal injection of 6% urea, 0.9% sodium chloride; seven patients
Protocol: The formulations and treatments disclosed herein are also effective to treat vitreous hemorrhage. In this example, seven human patients were treated for diabetes-related nonclearing vitreous hemorrhage. Each patient received a single intravitreal injection of 1001l of a formulation containing urea. The formulation used in this example contained 6% urea, 0.9% sodium chloride, and sterile water for injection (qs 100%).

[4] = tested on: human patients requiring pars plana vitrectomy; experiment: Treatment as adjunct to vitrectomy; format: in vivo
Protocol: In this example, five human patients requiring pars plana vitrectomy for various indications were treated one week prior to vitrectomy with a single intravitreal injection of 100 μl of a urea in aqueous solution. The formulation contained 6% urea, 0.9% sodium chloride, and sterile water for injection (qs 100%). All patients underwent routine vitrectomies 8 to 10 days after the urea injection. The minimum waiting time between the urea injection and the vitrectomy procedure is about 1 day to 3 days.
No vitrectomy cutter was used.

[5] = tested on: patients with nonproliferative diabetic retinopathy; experiment: Treatment of diabetic retinopathy; format: in vivo, human; settings: within 2-4 weeks after single intravitreal injection of 3% urea, 0.9% sodium chloride; 69 patients
Description: Sixty-nine patients with nonproliferative diabetic retinopathy were each administered a single intravitreal injection of 50 UI of a urea formulation containing 3% urea, 0.9% sodium chloride, and sterile water for injection.
The vitreous liquefaction and vitreous collapse in non-proliferative diabetic retinopathy patients would inhibit the growth and proliferation of the blood vessels, and thus inhibit the progression of diabetic retinopathy. All 69 (of the) patients were followed for six months following the procedure.

[6] = tested on: human patients with retinitis pigmentosa; experiment: Treatment of retinitis pigmentosa, double masked placebo controlled dose escalation study; format: in vivo
Protocol: A double masked placebo controlled, randomized, dose escalation study was done in 32 human patients with retinitis pigmentosa. All patients were treated with a single intravitreal injection of 50 μl of a urea-containing formulation. Three groups of patients received different concentrations of urea. One group received a formulation containing 1.5% urea, 0.9% sodium chloride, and sterile water for injection. A second group received an identical formulation except the formulation contained 3.0% urea. A third group received an identical formulation except the formulation contained 6.0% urea. A placebo group received 50 μl of 0.9% sodium chloride.
Forty-seven percent of the patient reported an increase of at least 3 lines of best corrected visual acuity measured by ETDRS charts, whereas, only 14% of the placebo patients reported an increase of at least 3 lines of best corrected visual acuity measured by ETDRS charts.
There was no dramatic increase in the visual field of the placebo control patients.

[7] = tested on: non sighted patients with optic nerve damage caused by trauma and/or glaucoma; experiment: Treatment of neuropathies, double masked placebo controlled dose escalation study; format: in vivo, human
Protocol: In accordance with the present disclosure, urea, thiourea, guanidine and possibly the other compounds of General Formula I above are effective to treat neuropathies 5 (e.g., disorders or damage to nerves). In this example, 33 non sighted patients with optic nerve damage caused by trauma and/or glaucoma, with visual acuity of light perception or no light perception were administered a urea-containing formulation, as disclosed herein. The study was a double masked placebo controlled, randomized, dose escalation study conducted with 33 human patients with optic nerve damage. Patients were randomized into 5 groups, Group 1 of 5 patients. Group 2 of 4 patients, Group 3 of 8 patients, Group 4 of 8 patients and Group 5 of 8 patients. Each patient received a single intravitreal injection of 50 UI of an aqueous treatment solution, as follows:
In Six patients the vision improved from No light perception to light perception, in 2 patients the vision improved from light perception to count fingers at 12 inches, in 2 patients the vision improved from no light perception to 20 20/400 and 20/800 vision and in 2 patients the vision improved from light perception to 20/600 and 20/800 vision. No patients in the placebo group reported any improvement in best corrected visual acuity as measured by ETDRS charts.

[8] = tested on: patients with long standing optic nerve damage related to optic nerve tumors; experiment: Treatment of optic nerve damage related to optic nerve tumors; format: in vivo, human
Protocol: In another study, three patients with long standing (6 months or longer) optic nerve damage related to optic nerve tumors were treated with a single intravitreal injection of 100 μl of a 6% urea containing formulation. All three patient treated reported a significant improvement in visual acuity after treatment. The patients' visual acuity improved from an average of Count Fingers at 12 inches to 20/200.

[9] = tested on: non-diabetic patients with symptomatic VMA; experiment: U.S. Phase Ib study: induction of PVD by multiple intravitreal injections of urea; format: in vivo, human; settings: preliminary
Protocol: (§1) A study was conducted to examine effect of multiple intravitreal injections of small molecule formulation of urea on induction of posterior vitreous detachment (PVD).
(§2) Formulation: Sterile lyophilized Urea, USP-NF in buffered isotonic saline for intravitreal injections. Injectable: Reconstituted with 300 μL sterile water for injection. Dosage form: 100 μL dose contains 18 mg Urea, USP-NF (18% w/v) in glass vial. Storage: room temperature. Stability: stable >24 mo for lyophilized form. […] PVD rate: 25% targeted efficacy.
(§3) U.S. study design: 2:1 randomized, Phase Ib, dose ranging & safety study. Patient population: 30 non-diabetic patients with symptomatic VMA. Treatment: high dose arm (Day 0: 100 μL 18% w/v injection; Day 30: 100 μL 18% w/v injection for all unresolved patients); low dose arm (Day 0: 100 μL 9% w/v injection; Day 30: 100 μL 9% w/v injection for all unresolved patients). Follow-up: days 0, 2, 8, 15, 30, 60, 90 and 180.

[10] = tested on: non-diabetic patients with symptomatic VMA; experiment: Ex-U.S. Phase Ib study: induction of PVD by multiple intravitreal injections of urea; format: in vivo, human; settings: preliminary
Protocol: as §1, §2
(§4) Ex-U.S. study design: 3:1 randomized, controlled, Phase Ib, POC & safety study. Patient population: non-diabetic patients with symptomatic VMA. Treatment arm: 20 patients. Control arm: 5 patients. Treatment: high dose arm (Day 0: 100 μL 36% w/v injection; Day 30: 100 μL 36% w/v injection for all unresolved patients); low dose arm (Day 0: 100 μL 18% w/v injection; Day 30: 100 μL 18% w/v injection for all unresolved patients). Follow-up: days 0, 2, 8, 15, 30, 45, 60 and 90.

[11] = tested on: non-diabetic patients with symptomatic VMA; experiment: Multiple intravitreal injections of urea: overall (pooled) results; format: in vivo, human
Protocol: as §1, §2, §3, §4
FIGS. 10 and 11 show the preliminary US and ex-US results, respectively. For the US study, 4 of 10 patients in high-dose group met primary endpoint, 1 of 7 patients in low-dose group met primary endpoint. For the ex-US study, 5 of 11 patients in high-dose group met primary endpoint, 3 of 6 patients in low-dose group met primary endpoint.

[12] = Storage stability of lyophilized urea formulation; format: physicochemical; settings: storage at room temperature
Protocol: as §2

[13] = cited from earlier work
[14] = tested on: vitreous and retina of injected eyes; settings: cited from earlier work
[15] = one week after administration of the gas

NC(N)=O [urea]
adverse effects of the intravitreal injection, ophthalmoscopic and biomicroscopic examination ([1]; 1.5 mg urea in 50 μl, Table II formulation, 12 patients): no adverse effects | patients with improvement of more than 2 lines of visual acuity (11 letters) ([1]; 6 months post Retinopexy): 64% | occurrence of new retinal tears with associated retinal detachment ([1]; follow up 90 days): none | patients with improvement of more than 2 lines of visual acuity (11 letters) ([1]; time not printed in the sentence (1 month post Retinopexy by context)): 64% | patients who developed PVD ([1]; within 3-7 days after urea injection): 11/12 | patients with complete retinal reattachment and macular attachment ([1]; within 3 days of treatment): 9/12 | patients with complete retinal reattachment and macular attachment ([1]; within 7 days): 12 patients | adverse effects of the intravitreal injection, ophthalmoscopic and biomicroscopic examination ([2]; 1.5 mg urea, Table III formulation): no adverse effects | visual acuity ([2]; four weeks post treatment): 20/60 | size of the macular hole ([2]; four weeks post treatment): 60 μm | visual acuity [2, 15]: 20/80 | size of the macular hole [2, 15]: 200 μm | time to complete Posterior Vitreous Detachment (PVD) ([2]; single intravitreal injection 1.5 mg urea, Table III formulation, one patient): ≤ 7 days | size of the macular hole ([2]; two weeks post treatment): 90 μm | patients with clearance of vitreous hemorrhage sufficient to treat the retina with photocoagulation [3]: All seven | decrease in surgical time relative to patients who did not receive urea ([4]; 6% urea, 100 μl intravitreal one week prior to vitrectomy): 70% | vitreous status at the time of vitrectomy ([4]; by one week after single intravitreal 100 μl of 6% urea, 0.9% sodium chloride, five patients): complete vitreous liquefaction and collapse | patients with complete vitreous liquefaction and collapse [5]: 69 patients | patients with an increase of at least 3 lines of best corrected visual acuity (ETDRS charts) ([6]; single intravitreal 50 μl of 1.5%, 3.0% or 6.0% urea, placebo 14%): Forty-seven | average improvement in the patient's visual field ([6]; urea-treated patients): 10 degrees | patients whose vision improved from No light perception to light perception ([7]; in vivo): Six | patients whose vision improved from light perception to 20/600 and 20/800 vision ([7]; in vivo): 2 patients | patients whose vision improved from light perception to count fingers at 12 inches ([7]; in vivo): 2 patients | patients whose vision improved from no light perception to 20/400 and 20/800 vision ([7]; in vivo): 2 patients | patients with an increase of best corrected visual acuity (ETDRS charts) ([7]; single intravitreal injection of 0.2%, 1.5%, 3.0% or 6.0% urea, no improvement in placebo group): Forty-three | average visual acuity after treatment ([8]; from an average of Count Fingers at 12 inches): 20/200 | patients reporting a significant improvement in visual acuity after treatment ([8]; single intravitreal 100 μl of 6% urea, three patients): All three | patients who met primary endpoint ([9]; high-dose group, 100 μL 18% w/v): 4 of 10 | patients who met primary endpoint ([9]; low-dose group, 100 μL 9% w/v): 1 of 7 | patients who met primary endpoint ([10]; high-dose group, 100 μL 36% w/v): 5 of 11 | patients who met primary endpoint ([10]; low-dose group, 100 μL 18% w/v): 3 of 6 | efficacy ([11]; after a second injection): 40% | % resolution of VMA ([11]; non-ERM): 44% | safety: drug related adverse effects ([11]; up to 4 injections): no drug related adverse effects | efficacy ([11]; with one injection): 30% | stability of lyophilized form [12]: > 24 mo | pH of solution ([13]; 10% water solution): 7.2 | stability of the solid ([13]; stored under dry conditions): stable at room temperature

Collagenase
reported adverse effect on the injected eye ([14]; dispase: 15 minutes after injection): disrupt the outer layers of the retina | reported effect on the vitreous ([14]; in vivo): liquefy the vitreous
